Experiments:
G-actin [1] = target: T1, G-actin (Oryctolagus cuniculus, UniProt P68135); experiment: Isothermal titration calorimetry, binding to monomeric actin; parameters: species or system rabbit
T1 construct: Actin was purified from rabbit muscle acetone powder; tissue Pel-Freez Biologicals (acetone powder); host or cells: rabbit muscle acetone powder
Method: Isothermal Titration Calorimetry. A solution of rabbit skeletal muscle actin (5-10 μM) was titrated with bistramide A or its analog (50-100 μM) at 25° C. in buffer containing 2 mM Tris HCl, pH 8.0, 0.2 mM CaCl2, 0.01% NaN3, 0.2 mM ATP, 0.2 mM 2-mercaptoethanol. Dissociation constants were calculated from the binding curve using Origin analytical software (OriginLab) with the binding model involving a single set of identical sites

A549 cells = experiment: Cell viability assay (CellTiter-Glo), growth inhibition of A549 cells; assay type: cell-based, human; conditions: Homo sapiens, A549, 48 h, 48 h incubation
Method: Cell Viability Assays. All assays were performed using at least three replicate wells for each concentration tested. Original 10-25 mM DMSO stock solution of bistramide A or its analogs was diluted to 100 μM for analogs 4-8, 10 μM for analog 3, 5 μM for analog 2 and 1 μM for bistramide A (1) with F-12K cell culture media supplemented with 10% fetal bovine serum, 100 I.U./ml penicillin, 100 μg/ml streptomycin and 2 mM L-glutamine. Two-fold serial dilutions were performed and used for cell-based assays. A549 cells were grown in 96-well white plates at the density of 1,000 cells per well in 100 μl F-12K cell culture media. Cells were allowed to attach over 24 h and treated with 30 μl of the drug solution and incubated further for 48 h. After incubation, cell viability was determined using luminescence-based commercial kit (CellTiter-Glo, Promega) and luminescence measured using a Wallac Victor 3 plate reader. To measure cell growth inhibition, viability assays were performed twice: at initial time point T0 and after 48 h incubation (T48). Change in the number of viable cells was measured, and GI50 was calculated from sigmoidal plots. For analog 10, growth of A549 and PC3 cells was monitored over 96 h following addition of the drug. 100 μM was the highest concentration tested. At no point did the total DMSO conc. exceed 1%.

F-actin in A549 cells = experiment: Fluorescent visualization of F-actin in A549 cells (Alexa Fluor 488 phalloidin); assay type: cell-based, human; conditions: 2 h incubation
Method: The presence of the enone increased the severing efficiency of the analogs three-fold. […] We determined whether it was the depletion of actin filaments by analogs 2-5 which was responsible for the growth inhibition of A549 cells. Each of the compounds was incubated with A549 cells for 2 h at a concentration that exceeded the GI50 value by a factor of 5. The cells were then fixed, permeabilized and filamentous actin was visualized by fluorescence microscopy following Alexa Fluor 488 phalloidin staining. […] They induced depolymerization at 150 nM for bistramide A (1), 500 nM for analog 2 and 2 μM for analog 3. Analogs 4 and 5 induced depolymerization of actin only at concentrations as high as 100 μM. […] This observation was consistent with the enhanced cell-based activity of the compounds containing the C(1)-C(4) enone moiety.
Fluorescent Visualization Of F-Actin In Cells. A549 cells grown on coverslips were incubated with analogs 4-8 (100 μM) analog 3 (2 μM) or analog 2 (500 nM) or bistramide A (150 nM) in F-12K cell culture medium for 2 h, fixed with 3% formaldehyde in PBS at 25° C. for 5 min and permeabilized with 0.1% Triton X-100 at 25° C. for 10 min. After washing with PBS, coverslips were stained with Alexa Fluor 488 Phalloidin and visualized by fluorescence microscopy.

G-actin [2] = target: T1, G-actin; experiment: Interaction with actin by MALDI-TOF (covalent modification); assay type: biochemical, rabbit; conditions: 1:1 actin-drug complex, 30 min
Method: Interaction Of Bistramide-Based Compounds With Actin By MALDI-TOF. A 1:1 actin-drug complex was incubated for 30 min in 2 mM Tris-HCl, pH 8.0, 0.2 mM CaCl2, 0.01% NaN3, 0.2 mM ATP, 1 mM 2-mercaptoethanol, diluted with deionized water to 26 μM and mixed with an equal volume of a solution of 10 mg/ml sinapinic acid in 50% CH3CN— 0.1% TFA. MALDI spectra were obtained on a Voyager-DE PRO biospectrometry workstation.

[3] = system: non-small cell broncho-pulmonary carcinoma xenografts; conditions: mouse, in vivo; cited from earlier work
[4] = mouse, in vivo; cited from earlier work
filamentous actin = filamentous actin (Oryctolagus cuniculus, UniProt P68135); experiment: TIRF microscopy of actin filament severing and depolymerization; assay type: biochemical, rabbit; parameters: Actin was purified from rabbit muscle acetone powder; tissue Pel-Freez Biologicals (acetone powder); host or cells: rabbit muscle acetone powder
Excerpt: To gain further insight into the mode of action of bistramide A, we next investigated the interaction of the natural product and its analogs with filamentous actin. […] Similar observations have been reported for several other actin-binding natural products. However, this effect could provide only limited mechanistic information and may primarily reflect the binding of a small molecule to the filaments in close proximity to the dye and quenching of pyrene fluorescence, which could be independent of the rates of actin depolymerization. Some proteins like myosin and Actin Depolymerizing Factor (ADF)/Cofilin are known to do so. Total internal reflection fluorescence (TIRF) microscopy has recently emerged as a powerful tool to investigate actin filament dynamics and its regulation by several actin-binding proteins, as well as latrunculin A, which is […] depolymerizing filamentous actin in vitro. Thus, we decided to employ TIRF microscopy to observe in real time the effects of bistramide-based compounds on actin polymerization in vitro. We believe this is the first instance where TIRF microscopy has been utilized to study the severing of actin filaments by a small molecule. We polymerized G-actin containing 25% of tetramethylrhodamine-functionalized and 10% of biotin-functionalized actin. The resulting actin filaments were immobilized onto the streptavidin-coated glass slides (in a flow cell). Analogs 1-8 were flown through the flow cell and imaged by time-lapse TIRF microscopy.
Total Internal Reflection Fluorescence Microscopy. Actin filament severing was studied using a custom-built total internal reflection fluorescence microscope. Images were collected with a 100×, 1.45 NA objective (Olympus) and an EMCCD camera (iXon, Andor Technologies). Glass flow cell (6 μl volume) was washed with 0.25 mg/ml neutravidin in F-buffer (50 mM KCl, 1 mM MgCl2, 1 mM EGTA, 10 mM imidiazole, 2 mM ATP, 0.2 mM 2-mercaptoethanol, 2 min) and blocked with 1 mg/ml BSA in F-buffer (2 min). Ten microliters of 200 nM Mg^2+-F-actin (10% biotinylated, 25% labeled with maleimide-6-tetramethylrhodamine) in TIRF-buffer (50 mM KCl, 1 mM MgCl2, 1 mM EGTA, 10 mM imidiazole, 2 mM ATP, 4.5 mg/ml glucose, 0.5% 2-mercaptoethanol, 4.3 mg/ml glucose oxidase, 0.7 mg/ml catalase) was added to the flowcell and incubated for 2 min. The chamber was rinsed with TIRF-buffer and imaged. Compounds were freshly diluted from their DMSO stock solutions in TIRF-buffer and were added to the chamber immediately after the start of each experiment. Images were collected at 0.2-s exposures every 3 s for 200 frames. For kinetics studies, movies of suitable length were obtained for each of the analog concentrations. Analysis was performed using ImageJ.

In the case of C/C=C/C(=O)C[C@@H]1CCC(C)C(CC(=O)NC[C@H](O)[C@H](C)C(=O)NCCC[C@H]2O[C@@]3(CCC[C@@H](CC[C@H](C)/C=C(\C)C(C)O)O3)CCC2C)O1 (some centres unmarked) [Bistramide A (1), bistramide A, reference compound], the Kd (G-actin [1]) is reported as 7 nM, the GI50 (A549 cells) is reported as 20 nM and the GI50 (A549 cells; values of the text) is reported as 20.4 nM. The “concentration inducing actin depolymerization in A549 cells” value (F-actin in A549 cells) was 150 nM, the “covalent modification of G-actin” value (G-actin [2]) was “covalently modified G-actin” and the “inhibition of tumor growth in xenograft model” value [3] was “ineffective at reducing tumor growth”. The general toxicity [4] was “high general toxicity”, the “effect on filamentous actin” value (filamentous actin; 750 nM) was “rapid filament depletion” and the “No. of breaks per 100 μm” value (filamentous actin; compound at 0.75 μM) was 40.4 per 100 μm. The Pointed-end depolymerization rate (filamentous actin; compound at 0.75 μM, standard deviations 0.1-0.3 subunits/s) was 0.49 subunits/s and the Barbed-end depolymerization rate (filamentous actin; compound at 0.75 μM, standard deviations 0.4-0.6 subunits/s) was 1.88 subunits/s.
